Measurements as given in patent publication US9364479B2, “Use of a receptor-type kinase modulator for treating polycystic kidney disease” (SYMPHONY EVOLUTION, INC., priority 2010, dated 2016).

What was measured:
Src = molecular target: T1, Src (Homo sapiens, UniProt P12931); assay: Chemiluminescent kinase assay; assay type: biochemical; conditions: ATP at Km
T1 construct: His (N); purchased Upstate Biotech

EGFR = molecular target: T2, EGFR (Homo sapiens, UniProt P00533); assay: Mechanism of action study / Ki determination; assay type: biochemical
T2 construct: residues H672-A1210 of human EGFR, Proqinase; purchased Proqinase
T2 sequence (P00533 672-1210): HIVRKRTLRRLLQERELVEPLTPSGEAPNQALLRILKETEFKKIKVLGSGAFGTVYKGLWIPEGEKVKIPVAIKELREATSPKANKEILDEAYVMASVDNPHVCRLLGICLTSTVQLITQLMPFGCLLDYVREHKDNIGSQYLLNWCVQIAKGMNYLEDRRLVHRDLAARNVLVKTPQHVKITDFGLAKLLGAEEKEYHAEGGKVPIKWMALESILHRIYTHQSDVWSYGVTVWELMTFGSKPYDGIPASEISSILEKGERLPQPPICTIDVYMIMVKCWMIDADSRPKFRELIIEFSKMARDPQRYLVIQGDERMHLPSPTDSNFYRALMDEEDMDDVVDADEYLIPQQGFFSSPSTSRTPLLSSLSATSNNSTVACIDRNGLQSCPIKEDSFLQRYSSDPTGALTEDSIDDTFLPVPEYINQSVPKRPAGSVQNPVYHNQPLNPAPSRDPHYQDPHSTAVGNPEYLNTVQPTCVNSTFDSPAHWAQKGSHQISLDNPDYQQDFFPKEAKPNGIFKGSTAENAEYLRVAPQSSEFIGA
Experimental: Enzymatic activity was measured by standard methods after dilution of the enzyme-inhibitor complex.

Histamine, H1 = molecular target: T3, Histamine, H1 (Homo sapiens, UniProt P35367); assay: NovaScreen assay; assay type: binding; conditions: read-out: Inhibition, 10 μM XL-647
T3 construct: NovaScreen
T3 sequence (P35367 whole entry): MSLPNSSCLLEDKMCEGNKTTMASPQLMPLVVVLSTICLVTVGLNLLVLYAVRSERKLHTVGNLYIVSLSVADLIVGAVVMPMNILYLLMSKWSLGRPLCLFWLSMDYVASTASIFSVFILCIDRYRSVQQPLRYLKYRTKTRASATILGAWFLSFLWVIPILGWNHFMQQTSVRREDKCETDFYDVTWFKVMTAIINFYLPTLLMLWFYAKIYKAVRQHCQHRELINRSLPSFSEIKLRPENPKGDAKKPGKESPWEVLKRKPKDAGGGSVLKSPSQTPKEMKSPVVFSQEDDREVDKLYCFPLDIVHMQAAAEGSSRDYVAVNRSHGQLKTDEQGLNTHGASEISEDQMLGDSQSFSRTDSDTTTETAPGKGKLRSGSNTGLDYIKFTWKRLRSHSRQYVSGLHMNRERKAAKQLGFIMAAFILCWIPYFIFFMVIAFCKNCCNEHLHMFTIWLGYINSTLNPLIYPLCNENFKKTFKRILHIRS

[1] = tested on: Muscarinic, Non-selective, Peripheral; assay: NovaScreen assay; assay type: binding
Estrogen = assay: NovaScreen assay; assay type: binding
Leukotriene D4, LTD4 = molecular target: T4, Leukotriene D4, LTD4 (Homo sapiens, UniProt Q9Y271); assay: NovaScreen assay; assay type: binding; conditions: read-out: Inhibition, 10 μM XL-647
T4 construct: NovaScreen

Oxytocin = molecular target: T5, Oxytocin (Homo sapiens, UniProt P30559); assay: NovaScreen assay; assay type: binding; conditions: read-out: Inhibition, 10 μM XL-647
T5 construct: NovaScreen
T5 sequence (P30559 whole entry): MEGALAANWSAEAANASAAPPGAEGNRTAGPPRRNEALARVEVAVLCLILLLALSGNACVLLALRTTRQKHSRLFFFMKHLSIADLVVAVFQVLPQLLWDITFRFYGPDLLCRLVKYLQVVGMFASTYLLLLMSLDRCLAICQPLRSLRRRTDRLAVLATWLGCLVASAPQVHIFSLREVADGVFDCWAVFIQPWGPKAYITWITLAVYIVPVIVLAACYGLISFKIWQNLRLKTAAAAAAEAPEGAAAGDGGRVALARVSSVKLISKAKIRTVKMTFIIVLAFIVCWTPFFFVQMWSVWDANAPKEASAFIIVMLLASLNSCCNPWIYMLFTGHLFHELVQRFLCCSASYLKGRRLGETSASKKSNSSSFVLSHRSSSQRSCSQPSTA

Bradykinin, BK2 = molecular target: T6, Bradykinin, BK2 (Homo sapiens, UniProt P30411); assay: NovaScreen assay; assay type: binding; conditions: read-out: Inhibition, 10 μM XL-647
T6 construct: NovaScreen
T6 sequence (P30411 whole entry): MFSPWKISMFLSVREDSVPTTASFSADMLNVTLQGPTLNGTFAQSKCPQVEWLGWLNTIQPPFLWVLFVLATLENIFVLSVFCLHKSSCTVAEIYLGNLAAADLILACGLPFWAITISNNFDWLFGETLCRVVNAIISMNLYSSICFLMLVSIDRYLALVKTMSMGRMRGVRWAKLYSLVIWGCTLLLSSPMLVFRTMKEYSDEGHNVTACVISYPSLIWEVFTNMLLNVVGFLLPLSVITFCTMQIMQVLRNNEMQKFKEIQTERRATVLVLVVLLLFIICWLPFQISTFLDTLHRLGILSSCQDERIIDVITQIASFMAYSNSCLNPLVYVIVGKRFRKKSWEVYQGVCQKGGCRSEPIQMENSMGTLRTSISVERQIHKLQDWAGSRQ

FGFR1 = molecular target: T7, FGFR1 (Homo sapiens, UniProt P11362); assay: AlphaScreen kinase assay; assay type: biochemical
T7 construct: cytoplasmic; GST-His6 (N); purchased ProQinase
T7 sequence (P11362 398-822 limits assumed): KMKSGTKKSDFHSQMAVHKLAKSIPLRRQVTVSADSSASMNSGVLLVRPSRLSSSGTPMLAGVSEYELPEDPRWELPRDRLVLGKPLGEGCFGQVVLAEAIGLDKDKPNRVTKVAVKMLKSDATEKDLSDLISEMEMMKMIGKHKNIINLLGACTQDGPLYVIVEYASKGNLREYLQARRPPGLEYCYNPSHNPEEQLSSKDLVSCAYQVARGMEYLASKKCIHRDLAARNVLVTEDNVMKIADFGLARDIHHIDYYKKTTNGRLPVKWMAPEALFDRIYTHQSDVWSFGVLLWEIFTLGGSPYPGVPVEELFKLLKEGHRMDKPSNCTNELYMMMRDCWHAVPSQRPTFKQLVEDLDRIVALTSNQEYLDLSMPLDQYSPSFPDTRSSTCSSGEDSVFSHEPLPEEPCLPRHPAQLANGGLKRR
Experimental: (§1) An AlphaScreen tyrosine kinase assay was used to measure ErbB2 and Flt-4 activity. Donor beads coated with streptavidin and acceptor beads coated with PY100 anti-phosphotyrosine antibody (Perkin-Elmer) were used. Biotinylated poly(Glu,Tyr) 4:1 was used as the substrate. Substrate phosphorylation was measured by luminescence following donor-acceptor bead addition followed by complex formation. Test compound, 3 μmol/L ATP, 3 nmol/L biotinylated poly(Glu,Tyr) 4:1, and 1 nmol/L ErbB2 (residues Q679-V1255 of human ErbB2, Proqinase) or Flt-4 (residues D725-R1298 of human Flt-4, Proqinase) were combined in a volume of 20 μL Assay Buffer (20 mM TrisHCl, pH 7.5, 10 mM MgCl2, 3 mM MnCl2, 1 mM DTT, 0.01% Triton) in a 384-well white, medium-binding microtiter plate (Greiner). Reaction mixtures were incubated for 1 h at room temperature. Reactions were quenched by addition of 10 μL of 15 to 30 μg/mL AlphaScreen bead suspension containing 75 mmol/L HEPES (pH 7.4), 300 mmol/L NaCl, 120 mmol/L EDTA, 0.3% bovine serum albumin, and 0.03% Tween 20. After 2 to 16 h of incubation at room temperature, plates were read using an AlphaQuest reader (Perkin-Elmer).
(§2) Further screening was performed using the biochemical assay methods of Example 2. Additional description of the components and concentrations are summarized in Table 8, Table 9, and Table 10, below.

Fyn = molecular target: T8, Fyn (Homo sapiens, UniProt P06241); assay: AlphaScreen kinase assay; assay type: biochemical
T8 construct: His6 (N); purchased Upstate Biotechnology
Experimental: as §1, §2

PDGFRβ = PDGFRβ (Homo sapiens, UniProt P09619); assay: Cellular autophosphorylation assay; assay type: cell-based
Chain of PDGFRβ (P09619 33-1106, species assumed): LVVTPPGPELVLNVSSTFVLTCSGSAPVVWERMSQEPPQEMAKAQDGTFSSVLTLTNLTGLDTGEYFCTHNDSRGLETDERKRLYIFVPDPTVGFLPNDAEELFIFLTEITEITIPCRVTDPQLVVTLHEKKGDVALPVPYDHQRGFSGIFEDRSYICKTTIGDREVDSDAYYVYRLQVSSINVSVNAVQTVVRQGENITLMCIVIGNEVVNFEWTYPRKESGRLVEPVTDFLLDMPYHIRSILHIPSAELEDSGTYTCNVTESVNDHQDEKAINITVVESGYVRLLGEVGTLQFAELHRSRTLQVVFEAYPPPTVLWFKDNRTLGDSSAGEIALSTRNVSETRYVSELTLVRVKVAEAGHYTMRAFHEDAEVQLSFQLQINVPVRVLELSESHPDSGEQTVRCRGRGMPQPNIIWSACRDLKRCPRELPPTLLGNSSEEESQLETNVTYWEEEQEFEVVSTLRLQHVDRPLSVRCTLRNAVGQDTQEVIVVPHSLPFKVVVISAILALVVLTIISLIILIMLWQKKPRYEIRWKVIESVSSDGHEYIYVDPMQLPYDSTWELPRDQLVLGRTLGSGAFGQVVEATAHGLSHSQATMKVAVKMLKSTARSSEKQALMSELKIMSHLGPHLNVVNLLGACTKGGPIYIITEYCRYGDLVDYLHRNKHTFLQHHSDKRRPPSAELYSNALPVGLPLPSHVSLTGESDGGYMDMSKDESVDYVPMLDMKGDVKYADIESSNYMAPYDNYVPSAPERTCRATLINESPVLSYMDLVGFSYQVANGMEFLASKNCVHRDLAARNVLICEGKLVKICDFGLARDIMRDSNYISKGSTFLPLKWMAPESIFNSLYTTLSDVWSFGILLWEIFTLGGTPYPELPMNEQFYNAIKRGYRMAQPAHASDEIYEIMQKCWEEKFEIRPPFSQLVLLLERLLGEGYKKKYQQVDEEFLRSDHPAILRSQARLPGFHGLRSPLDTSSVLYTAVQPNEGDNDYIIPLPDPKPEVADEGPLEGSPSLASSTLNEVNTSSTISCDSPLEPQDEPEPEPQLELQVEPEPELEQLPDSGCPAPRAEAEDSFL

[2] = tested on: A431 human epidermoid carcinoma xenograft; assay: A431 xenograft model, tumor growth; assay type: in vivo, mouse; conditions: for ED50: Mus musculus
Experimental: Female severe combined immunodeficient mice and female athymic nude mice (NCr), 5 to 8 weeks of age and weighing ˜20 to 25 g, were purchased from The Jackson Laboratory and Taconic, respectively. The animals were housed at the Exelixis vivarium facilities according to guidelines outlined by the Exelixis Institutional Animal Care and Use Committee. During all studies, animals were provided food and water ad libitum and housed in a room conditioned at 70° F. to 75° F. and 60% relative humidity.
Before treatment, H1975, A431, or MDA-MB-231 cells were harvested from exponentially growing cultures, detached by brief trypsinization, washed twice in cold HBSS, resuspended in ice-cold HBSS, and implanted either s.c. (H1975, 3×10^6 cells per mouse) or i.d. (A431, 1×10^6 cells per mouse) into the dorsal hind flank or s.c. into the mammary fat pad (MDA-MB-231, 1×10^6 cells per mouse). Palpable tumors were measured by caliper twice weekly until the mean tumor weight was in the range of ˜80 to 120 mg. Tumor weight was determined by measuring perpendicular diameters with a caliper and multiplying the measurements of diameters in two dimensions: tumor […]. Tumor weight (mg) was extrapolated from tumor volume (mm3) by assuming a conversion factor of 1. On the appropriate day after implantation, mice were grouped (10 mice per group) such that the group mean tumor weight was ˜100±15 mg. The mean tumor weight of each animal in the respective control and treatment groups was determined twice weekly during the dosing periods. Tumor xenografts were established in female mice and allowed to reach approximately 100 mg prior to treatment. An example is described in Gendreau S B, Ventura R, Keast P, et al., Inhibition of the T790M Gatekeeper Mutant of the Epidermal Growth Factor Receptor by EXEL-7647, Clin Cancer Res 3713, 13(12) (2007), which is hereby incorporated by reference.
(§3) The response of tumors to treatment was determined by comparing the mean tumor weight of the treatment group with the appropriate control group. Percentage inhibition of tumor growth was determined with the following formula: Percentage inhibition=100×[1−(Xf−Xo)/(Yf−Yo)], where Xf and Yf are the mean tumor weights of the treatment and control groups, respectively, on day f, and Xo and Yo are the mean tumor weights of treatment and control groups respectively, on day zero (staged tumor weights after grouping)

[3] = tested on: MDA-MB-231 human tumor xenograft; assay: MDA-MB-231 xenograft, tumor growth; assay type: in vivo; conditions: Mus musculus
Experimental: Before treatment, H1975, A431, or MDA-MB-231 cells were harvested from exponentially growing cultures, detached by brief trypsinization, washed twice in cold HBSS, resuspended in ice-cold HBSS, and implanted either s.c. (H1975, 3×10^6 cells per mouse) or i.d. (A431, 1×10^6 cells per mouse) into the dorsal hind flank or s.c. into the mammary fat pad (MDA-MB-231, 1×10^6 cells per mouse). Palpable tumors were measured by caliper twice weekly until the mean tumor weight was in the range of ˜80 to 120 mg. Tumor weight was determined by measuring perpendicular diameters with a caliper and multiplying the measurements of diameters in two dimensions: tumor volume (mm^3)/2=length (mm)×width (mm^2)/2. […] The mean tumor weight of each animal in the respective control and treatment groups was determined twice weekly during the dosing periods. […]
as §3

p-Y-EGFR = p-Y-EGFR (Homo sapiens, UniProt P00533); assay: In vivo receptor phosphorylation, A431 xenografts; set-up: species or system mouse
Chain of p-Y-EGFR (P00533 25-1210): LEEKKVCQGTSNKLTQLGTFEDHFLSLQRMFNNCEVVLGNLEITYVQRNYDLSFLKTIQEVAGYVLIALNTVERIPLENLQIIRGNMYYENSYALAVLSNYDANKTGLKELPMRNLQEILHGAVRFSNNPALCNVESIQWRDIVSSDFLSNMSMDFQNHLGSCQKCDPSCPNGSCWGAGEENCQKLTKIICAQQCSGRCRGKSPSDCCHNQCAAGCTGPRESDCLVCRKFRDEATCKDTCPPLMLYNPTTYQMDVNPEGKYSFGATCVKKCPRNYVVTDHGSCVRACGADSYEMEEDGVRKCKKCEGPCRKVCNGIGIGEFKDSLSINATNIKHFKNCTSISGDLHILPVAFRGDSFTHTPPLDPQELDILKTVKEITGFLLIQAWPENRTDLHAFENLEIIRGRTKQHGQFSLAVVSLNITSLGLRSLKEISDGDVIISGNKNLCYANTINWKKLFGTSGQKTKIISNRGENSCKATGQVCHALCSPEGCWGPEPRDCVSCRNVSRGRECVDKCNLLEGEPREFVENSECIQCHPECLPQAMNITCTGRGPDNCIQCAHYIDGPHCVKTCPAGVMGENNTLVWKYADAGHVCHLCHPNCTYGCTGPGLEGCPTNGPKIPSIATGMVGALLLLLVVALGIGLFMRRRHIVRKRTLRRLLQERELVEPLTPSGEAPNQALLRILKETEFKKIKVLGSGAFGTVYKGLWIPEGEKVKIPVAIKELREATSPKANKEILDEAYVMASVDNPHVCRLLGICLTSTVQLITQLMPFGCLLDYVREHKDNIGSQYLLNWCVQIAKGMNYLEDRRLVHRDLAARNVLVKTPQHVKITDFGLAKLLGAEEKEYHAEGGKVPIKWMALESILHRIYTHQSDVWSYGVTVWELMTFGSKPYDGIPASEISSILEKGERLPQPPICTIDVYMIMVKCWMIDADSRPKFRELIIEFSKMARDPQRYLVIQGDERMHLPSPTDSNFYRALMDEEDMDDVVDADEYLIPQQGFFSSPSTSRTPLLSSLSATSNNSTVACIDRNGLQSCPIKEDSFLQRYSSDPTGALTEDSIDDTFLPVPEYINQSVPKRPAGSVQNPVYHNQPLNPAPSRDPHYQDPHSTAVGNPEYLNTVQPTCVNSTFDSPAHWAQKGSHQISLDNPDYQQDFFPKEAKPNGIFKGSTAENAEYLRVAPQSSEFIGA

CYP3A4 = CYP3A4 (Homo sapiens, UniProt P08684); conditions: microsomes
EGFR L861Q (pCMV/Lx-1) = EGFR L861Q (pCMV/Lx-1) (Homo sapiens, UniProt P00533, L861Q); assay: EGFR phosphorylation ELISA in transfected Lx-1 cells
Text: Lx-1 cells were used because they lack background EGFR activity. A clone corresponding to the longest EGFR isoform (Genbank accession no. NM_005228.3/NP_005219.2 #21-176, Upstate Biotechnology) was used as a template to produce two mutant EGFR genes (coding for L858R and L861Q) by site-directed mutagenesis. The WT and the two sequence-verified mutants were transferred to a COOH-terminal Flag-tagged retroviral cytomegalovirus promoter-driven mammalian expression vector. The two Tet-On expression vectors, EGFR WT (Tet-On) and EGFRvIII (Tet-On), which were COOH-terminally Flag tagged, were generously provided by Dr. Abhijit Guha (University of Toronto, Toronto, Ontario, Canada).
Transient transfections of Lx-1 cells were done using Lipofectamine 2000 (Invitrogen) according to the manufacturer's protocol. For transfections of the WT, L858R, and L861Q constructs, 1 μg plasmid DNA was used for each transfection (each well of a 12-well plate). […]
For the EGFR phosphorylation ELISA, Reacti-Bind streptavidin-coated plates (Pierce) were coated with 2 μg/mL biotin-conjugated anti-Flag antibody (Sigma). […] Horseradish peroxidase activity was determined by reading the plates in a Victor2 plate reader following addition of the ELISA Femto substrate.

T1 sequence (P12931 whole entry): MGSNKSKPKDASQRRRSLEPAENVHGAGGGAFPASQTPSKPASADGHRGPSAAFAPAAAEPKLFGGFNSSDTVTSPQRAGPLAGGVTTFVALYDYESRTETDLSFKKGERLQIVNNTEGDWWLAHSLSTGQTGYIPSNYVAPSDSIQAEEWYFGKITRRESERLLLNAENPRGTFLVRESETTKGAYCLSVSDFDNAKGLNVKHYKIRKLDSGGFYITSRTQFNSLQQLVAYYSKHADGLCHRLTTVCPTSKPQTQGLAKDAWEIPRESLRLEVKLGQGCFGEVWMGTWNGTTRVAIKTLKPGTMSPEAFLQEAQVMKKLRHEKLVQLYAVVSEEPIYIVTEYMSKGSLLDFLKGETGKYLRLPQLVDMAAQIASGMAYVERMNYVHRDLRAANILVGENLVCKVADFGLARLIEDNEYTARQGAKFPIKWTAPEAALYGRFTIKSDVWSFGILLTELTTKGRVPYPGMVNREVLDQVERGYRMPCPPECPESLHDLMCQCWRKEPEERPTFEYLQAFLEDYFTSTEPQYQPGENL

For `COc1cc2c(Nc3ccc(Cl)c(Cl)c3F)ncnc2cc1OC[C@@H]1C[C@@H]2CN(C)C[C@@H]2C1` [XL-647, N-(3,4-dichloro-2-fluorophenyl)-7-({[(3aR,5r,6aS)-2-methyloctahydrocyclopenta[c]pyrrol-5-yl]methyl}oxy)-6-(methyloxy)quinazolin-4-amine], which IC50 (Src) is on record?
The IC50 was 10.3 ± 2 nM.

What about the ATP-Competitive (EGFR) of the same molecule?
Its ATP-Competitive is “Yes”.

What about the Ki (EGFR) of the same molecule?
Its Ki is 0.05 nM.

What about the Reversible (EGFR) of the same molecule?
The Reversible was “Yes”.

What about the inhibition at 10 µM (Histamine, H1) of the same molecule?
Its inhibition at 10 µM is 59.8%.

What about the IC50 [1] of the same molecule?
Its IC50 is 2650 nM.

What about the “Inhibition, 10 μM XL-647” value ([1]; 10 μM) of the same molecule?
Its value is 87.74%.

What about the “Inhibition, 10 μM XL-647” value (Estrogen) of the same molecule?
Its value is 15.75%.

And the inhibition at 10 µM (Leukotriene D4, LTD4)?
The inhibition at 10 µM was -11.9%.

What about the inhibition at 10 µM (Oxytocin) of the same molecule?
Its inhibition at 10 µM is -2.59%.

And the inhibition at 10 µM (Bradykinin, BK2)?
Its inhibition at 10 µM is 48.8%.

What about the IC50 (FGFR1) of the same molecule?
Its IC50 is 855 ± 96.3 nM.

What about the IC50 (Fyn) of the same molecule?
The IC50 was 41 ± 8.1 nM.

And the IC50 (PDGFRβ)?
Its IC50 is over 1200 nM.

And the tumor growth inhibition ([2]; 10 mg/kg/day oral, 14 days)?
The tumor growth inhibition was 65%.

And the “final tumor weight (marked regression)” value ([2]; 100 mg/kg/day oral, 14 days, starting weight 109±20 mg)?
The value was 36 ± 15 mg.

And the “tumor growth, in words” value ([2]; 10, 30, and 100 mg/kg/day oral, 14 days)?
The value was “significantly inhibited tumor growth in a dose dependent manner”.

And the ED50 ([2]; A-431, qd × 14)?
The ED50 was 5.9 mg/kg.

And the ED50 ([2]; A-431, qd × 28)?
The ED50 was 3.8 mg/kg.

What about the ED50 ([3]; MDA-MB-231, qd × 14) of the same molecule?
The ED50 was 21.9 mg/kg.

What about the ED50 ([3]; MDA-MB-231, qd × 28) of the same molecule?
Its ED50 is 22.9 mg/kg.

What about the “Single Dose Duration of Action (100 mg/kg, >50% inhibition)” value (p-Y-EGFR; A431 xenografts) of the same molecule?
The value was over 72 h.

What about the inhibition at 3 mg/kg (p-Y-EGFR; A-431, mouse, 3 mg/kg, dosed 3.5 hours before EGF) of the same molecule?
The inhibition at 3 mg/kg was 41%.

What about the inhibition at 10 mg/kg (p-Y-EGFR; A-431, mouse, 10 mg/kg, dosed 3.5 hours before EGF) of the same molecule?
The inhibition at 10 mg/kg was 70%.

And the inhibition at 30 mg/kg (p-Y-EGFR; A-431, mouse, 30 mg/kg (plasma 4 μM), dosed 3.5 hours before EGF)?
Its inhibition at 30 mg/kg is 89%.

And the inhibition at 100 mg/kg (p-Y-EGFR; A-431, mouse, 100 mg/kg, dosed 3.5 hours before EGF)?
The inhibition at 100 mg/kg was 93%.

And the IC50 (p-Y-EGFR; in vivo, A431 xenografts, PO, read-out: Estimated IC50 (plasma concentration))?
Its IC50 is 720 nM.

And the “CYP3A4 inhibition, in words” value (CYP3A4)?
The value was “but not CYP3A4”.

What about the IC50 (EGFR L861Q (pCMV/Lx-1)) of the same molecule?
The IC50 was 10 nM.
